# Experimental data reported in patent publication US8133898B2, “Renin inhibitors” (Takeda Pharmaceutical Company Limited, priority 2008, dated 2012).
# pIC50: −log10 of the molar value.
# Key:
# [1] = target: T1, Recombinant human renin (Homo sapiens, UniProt P00797); test: in vitro enzymatic activity of renin inhibitors (fluorescence); format: biochemical; settings: fluorogenic peptide substrate
# T1 construct: with trypsin, and isolate the active form (residues 67-406); made in house; host or cells: FreeStyle 293-F cells (transient expression of pcDNA3.1(+)/hREN)
# T1 sequence (P00797 67-406): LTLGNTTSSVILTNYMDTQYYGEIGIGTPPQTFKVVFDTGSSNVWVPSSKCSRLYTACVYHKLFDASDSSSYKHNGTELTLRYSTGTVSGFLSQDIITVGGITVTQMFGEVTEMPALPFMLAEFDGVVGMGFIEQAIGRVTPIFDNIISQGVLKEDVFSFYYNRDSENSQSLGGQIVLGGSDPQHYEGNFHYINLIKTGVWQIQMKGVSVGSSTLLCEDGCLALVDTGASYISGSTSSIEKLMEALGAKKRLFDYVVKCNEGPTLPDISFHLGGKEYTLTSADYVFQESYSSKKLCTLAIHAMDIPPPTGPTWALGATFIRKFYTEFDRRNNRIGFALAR
# Description: Test compounds in varying concentrations may be reacted with recombinant human renin in the presence of substrate, e.g., QXL520-γ-Abu-Ile-His-Pro-Phe-His-Leu-Val-Ile-His-Thr-Lys (HiLyteFluo488)-Arg-OH (Anaspec, San Jose, Calif.). The reaction can be followed kinetically using fluorescence (excitation λ=485 nm; emission λ=538 nm). Inhibition constants (IC50) may be calculated by non-linear curve fitting of the compound concentrations and fluorescence intensities to the standard IC50 equation.
# Solutions of test compounds in varying concentrations (≦2 mM final concentration) are prepared in dimethyl sulfoxide (DMSO) and then diluted into assay buffer comprising 50 mM Hepes, 1 mM EDTA, 1 mM DTT, 0.1 mg/ml BSA, 0.01% Brij35, pH 7.4. Alternatively, the assay can be performed with a high BSA concentration, wherein the buffer contains an additional 2% BSA.
# Recombinant human renin (3 nM final concentration) is added to the dilutions and pre-incubated with the compounds for 10 minutes at 37° C. As described in Examples A-C above, human renin can be obtained by expressing preprorenin (residue 1-406) in mammalian cells, treating the prorenin (residues 24-406) contained in the culture supernatant with trypsin, and isolate the active form (residues 67-406). After pre-incubation, the reaction is initiated with 1 μM of substrate QXL520-γ-Abu-Ile-His-Pro-Phe-His-Leu-Val-Ile-His-Thr-Lys (HiLyteFluo488)-Arg-OH (Anaspec, San Jose, Calif.). The final DMSO in the assay is 5%. The total volume of the reaction mixture is 20 μL, which can be placed on Greiner 384-well small volume plates.
# Renin activity may be determined via fluorescence (excitation λ=485 nm; emission λ=538 nm), e.g., on a Molecular Devices SPECTROmax GEMINI XPS. The fluorescence intensity is determined upon the addition of substrate and determined again after incubation at 37° C. for one hour. The fluorescence intensity of a blank (no inhibition) using vehicle alone is also determined. Renin activity is linearly proportional to the change in fluorescence observed (final—initial).
# The percent inhibition of renin at a given compound concentration is defined as: 100%×[1−(Fcompound/Fblank)] where Fcompound is the observed fluorescence at a given concentration of test compound and Fblank is the observed fluorescence in the presence of vehicle alone.
# The pIC50 value (negative log of the molar concentration of the compound that produces 50% inhibition) of a test compound is calculated by non-linear least squares curve fitting of the equation: Percent Inhibition=100%/(1+(10−pIC50/10 log [I])) to percent inhibition versus compound concentration. The 50% inhibitory concentration (IC50) of a test compound is calculated by raising 10 to the negative pIC50 (10-pIC50).
# [2] = target: Human DPP-IV (Homo sapiens, UniProt P27487); test: in vitro enzymatic activity of inhibitors against DPP-IV; format: biochemical; settings: AP-AFC substrate
# Sequence of Human DPP-IV (P27487 whole entry): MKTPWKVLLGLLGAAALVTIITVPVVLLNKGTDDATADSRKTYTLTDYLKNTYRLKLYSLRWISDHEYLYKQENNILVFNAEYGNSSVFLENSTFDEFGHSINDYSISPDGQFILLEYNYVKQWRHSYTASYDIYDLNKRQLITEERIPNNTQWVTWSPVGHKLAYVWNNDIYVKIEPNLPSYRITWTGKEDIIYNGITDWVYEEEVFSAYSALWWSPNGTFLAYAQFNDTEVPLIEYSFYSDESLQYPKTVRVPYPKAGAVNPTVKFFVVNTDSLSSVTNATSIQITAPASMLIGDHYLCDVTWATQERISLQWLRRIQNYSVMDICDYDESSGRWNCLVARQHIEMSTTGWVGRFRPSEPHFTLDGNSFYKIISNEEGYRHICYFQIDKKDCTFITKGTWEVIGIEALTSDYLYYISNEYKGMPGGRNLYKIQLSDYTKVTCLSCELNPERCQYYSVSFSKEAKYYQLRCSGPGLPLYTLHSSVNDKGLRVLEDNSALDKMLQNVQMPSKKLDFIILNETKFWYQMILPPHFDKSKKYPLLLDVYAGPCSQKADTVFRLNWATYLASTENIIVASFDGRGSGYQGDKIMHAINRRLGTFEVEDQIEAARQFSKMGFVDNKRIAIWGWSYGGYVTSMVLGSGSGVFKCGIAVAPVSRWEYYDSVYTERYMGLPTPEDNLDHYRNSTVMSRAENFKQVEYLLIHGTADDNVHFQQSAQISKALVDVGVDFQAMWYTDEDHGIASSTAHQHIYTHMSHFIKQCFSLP
# Description: Solutions of test compounds in varying concentrations ([…]) were prepared in dimethyl sulfoxide (DMSO) and then diluted into assay buffer comprising: 20 mM Tris, pH 7.4; 20 mM KCl; and 0.1 mg/mL BSA. Human DPP-IV (0.1 nM final concentration) was added to the dilutions and pre-incubated for 10 minutes at ambient temperature before the reaction was initiated with A-P-7-amido-4-trifluoromethylcoumarin (AP-AFC; 10 μM final concentration). The total volume of the reaction mixture was 10-100 μL depending on assay formats used (384 or 96 well plates). The reaction was followed kinetically (excitation λ=400 nm; emission λ=505 nm) for 5-10 minutes or an end-point was measured after 10 minutes. Inhibition constants (IC50) were calculated from the enzyme progress curves using standard mathematical models.
pIC50 [1],pIC50 [2],Molecule
4.00 to 5.00,> 6.00,"CC(=O)Nc1ccc(Sc2nc3c(c(-c4cc(F)ccc4Br)c2CN)c(=O)n(C)c(=O)n3C)cc1 [Compound 68, N-(4-(6-(aminomethyl)-5-(2-bromo-5-fluorophenyl)-1,3-dimethyl-2,4-dioxo-1,2,3,4-tetrahydropyrido[2,3-d]pyrimidin-7-ylthio)phenyl)acetamide]"
5.00 to 6.00,> 6.00,"COc1ccc(F)cc1-c1c(CN)c(NCc2ccc3ccccc3c2)nc2c1c(=O)n(C)c(=O)n2C [Compound 70, 6-(aminomethyl)-5-(5-fluoro-2-methoxyphenyl)-1,3-dimethyl-7-(naphthalen-2-ylmethylamino)pyrido[2,3-d]pyrimidine-2,4(1H,3H)-dione]"
5.00 to 6.00,–,"COc1cccc(CNc2nc3c(c(-c4cc(F)ccc4OC)c2CN)c(=O)n(C)c(=O)n3C)c1 [Compound 71, 6-(aminomethyl)-5-(5-fluoro-2-methoxyphenyl)-7-(3-methoxybenzylamino)-1,3-dimethylpyrido[2,3-d]pyrimidine-2,4(1H,3H)-dione]"
5.00 to 6.00,> 6.00,"COc1ccc(F)cc1-c1c(CN)c(NCc2ccc(-n3cccn3)cc2)nc2c1c(=O)n(C)c(=O)n2C [Compound 72, 7-(4-(1H-pyrazol-1-yl)benzylamino)-6-(aminomethyl)-5-(5-fluoro-2-methoxyphenyl)-1,3-dimethylpyrido[2,3-d]pyrimidine-2,4(1H,3H)-dione]"
5.00 to 6.00,–,"CCC(CC)Nc1nc2c(c(-c3cc(F)ccc3OC)c1CN)c(=O)n(C)c(=O)n2C [Compound 73, 6-(aminomethyl)-5-(5-fluoro-2-methoxyphenyl)-1,3-dimethyl-7-(pentan-3-ylamino)pyrido[2,3-d]pyrimidine-2,4(1H,3H)-dione]"
5.00 to 6.00,> 6.00,"COc1ccc(F)cc1-c1c(CN)c(NCCCc2ccccc2)nc2c1c(=O)n(C)c(=O)n2C [Compound 75, 6-(aminomethyl)-5-(5-fluoro-2-methoxyphenyl)-1,3-dimethyl-7-(3-phenylpropylamino)pyrido[2,3-d]pyrimidine-2,4(1H,3H)-dione]"

# Continued, molecule first:
Molecule,pIC50 [1],pIC50 [2]
"6-(aminomethyl)-5-(2-bromo-5-fluorophenyl)-7-(4-(ethylamino)phenylthio)-1,3-dimethylpyrido[2,3-d]pyrimidine-2,4(1H,3H)-dione [Compound 69]",4.00 to 5.00,> 6.00
"CCOc1cc(OCC)cc(-c2c(CN)c(NCc3ccc4ccccc4c3)nc3c2c(=O)n(C)c(=O)n3C)c1 [Compound 56, 6-(Aminomethyl)-5-(3,5-diethoxyphenyl)-1,3-dimethyl-7-(naphthalen-2-ylmethylamino)pyrido[2,3-d]pyrimidine-2,4(1H,3H)-dione]",< 4.00,< 4.00
"COc1cc(OC)cc(-c2c(CN)c(NCc3ccc4ccccc4c3)nc3c2c(=O)n(C)c(=O)n3C)c1 [Compound 57, 6-(aminomethyl)-5-(3,5-dimethoxyphenyl)-1,3-dimethyl-7-(naphthalen-2-ylmethylamino)pyrido[2,3-d]pyrimidine-2,4(1H,3H)-dione]",5.00 to 6.00,< 4.00
"CN(C)C(=O)c1cccc(-c2c(CN)c(NCc3ccc4ccccc4c3)nc3c2c(=O)n(C)c(=O)n3C)c1 [Compound 58, 3-(6-(Aminomethyl)-1,3-dimethyl-7-(naphthalen-2-ylmethylamino)-2,4-dioxo-1,2,3,4-tetrahydropyrido[2,3-d]pyrimidin-5-yl)-N,N-dimethylbenzamide]",5.00 to 6.00,–
"Cn1c(=O)c2c(-c3cccc4c3OC(C)(C)C4)c(CN)c(NCc3ccc4ccccc4c3)nc2n(C)c1=O [Compound 59, 6-(Aminomethyl)-5-(2,2-dimethyl-2,3-dihydrobenzofuran-7-yl)-1,3-dimethyl-7-(naphthalen-2-ylmethylamino)pyrido[2,3-d]pyrimidine-2,4(1H,3H)-dione]",5.00 to 6.00,4.00 to 5.00
"COc1ccc(Oc2cccc(-c3c(CN)c(NCc4ccc5ccccc5c4)nc4c3c(=O)n(C)c(=O)n4C)c2)cc1 [Compound 60, 6-(Aminomethyl)-5-(3-(4-methoxyphenoxy)phenyl)-1,3-dimethyl-7-(naphthalen-2-ylmethylamino)pyrido[2,3-d]pyrimidine-2,4(1H,3H)-dione]",5.00 to 6.00,4.00 to 5.00
"COc1ccc(-c2c(CN)c(NCc3ccc4ccccc4c3)nc3c2c(=O)n(C)c(=O)n3C)cc1OC [Compound 61, 6-(Aminomethyl)-5-(3,4-dimethoxyphenyl)-1,3-dimethyl-7-(naphthalen-2-ylmethylamino)pyrido[2,3-d]pyrimidine-2,4(1H,3H)-dione]",5.00 to 6.00,4.00 to 5.00
"Cn1c(=O)c2c(-c3nc4ccccc4s3)c(CN)c(NCc3ccc4ccccc4c3)nc2n(C)c1=O [Compound 62, 6-(Aminomethyl)-5-(benzo[d]thiazol-2-yl)-1,3-dimethyl-7-(naphthalen-2 ylmethylamino)pyrido[2,3-d]pyrimidine-2,4(1H,3H)-dione]",< 4.00,< 4.00
"Cn1c(=O)c2c(-c3ccccc3Oc3ccccc3)c(CN)c(NCc3ccc4ccccc4c3)nc2n(C)c1=O [Compound 63, 6-(Aminomethyl)-1,3-dimethyl-7-(naphthalen-2-ylmethylamino)-5-(2-phenoxyphenyl)pyrido[2,3-d]pyrimidine-2,4(1H,3H)-dione]",5.00 to 6.00,5.00 to 6.00
"CCOc1ccc(OCC)c(-c2c(CN)c(NCc3ccc4ccccc4c3)nc3c2c(=O)n(C)c(=O)n3C)c1 [Compound 64, 6-(aminomethyl)-5-(2,5-diethoxyphenyl)-1,3-dimethyl-7-(naphthalen-2-ylmethylamino)pyrido[2,3-d]pyrimidine-2,4(1H,3H)-dione]",5.00 to 6.00,< 4.00
"CCCOc1ccc(OCCC)c(-c2c(CN)c(NCc3ccc4ccccc4c3)nc3c2c(=O)n(C)c(=O)n3C)c1 [Compound 65, 6-(Aminomethyl)-5-(2,5-dipropoxyphenyl)-1,3-dimethyl-7-(naphthalen-2-ylmethylamino)pyrido[2,3-d]pyrimidine-2,4(1H,3H)-dione]",4.00 to 5.00,< 4.00
"Cn1c(=O)c2c(-c3ccc(CN)cc3)c(CN)c(N)nc2n(C)c1=O [Compound 66, 7-Amino-6-(aminomethyl)-5-(4-(aminomethyl)phenyl)-1,3-dimethylpyrido[2,3-d]pyrimidine-2,4(1H,3H)-dione]",4.00 to 5.00,< 4.00
"CCCOc1cc(OCCC)cc(-c2c(CN)c(NCc3ccc4ccccc4c3)nc3c2c(=O)n(C)c(=O)n3C)c1 [Compound 67, 6-(Aminomethyl)-5-(3,5-dipropoxyphenyl)-1,3-dimethyl-7-(naphthalen-2-ylmethylamino)pyrido[2,3-d]pyrimidine-2,4(1H,3H)-dione]",4.00 to 5.00,< 4.00
"CC(C)COc1cccc(-c2c(CN)c(N)nc3c2c(=O)n(C)c(=O)n3C)c1 [Compound 76, 7-amino-6-(aminomethyl)-5-(3-isobutoxyphenyl)-1,3-dimethylpyrido[2,3-d]pyrimidine-2,4(1H,3H)-dione]",< 4.00,4.00 to 5.00
